Results from patent US20060009423A1, “Phosphonate-phosphate and diphosphonate apolipoprotein e modulators” (priority 2002, published 2006).

Key:
THP-1 cells = assay: In vitro apoE secretion by THP-1 cells (ELISA); assay type: cell-based, human; settings: 72 hours incubation, ELISA of culture medium
Text: The in vitro assay comprises determining the effect of a compound of formula (I) in modulating the secretion of apoE by an apoE secreting cell line (e.g., a monocyte-macrophage cell line such as the THP-1 cell line, a liver derived cell line such as the HepG2 cell line, an intestinal derived cell line such as the CaCo2 cell line, or a brain derived cell line such as the astrocytoma CCF-STTG1 cell line). The experimental details for use of the THP-1 cell line in the in vitro assay are provided below.
The THP-1 cell line was derived from the peripheral blood of a child with acute monocytic leukaemia and were obtained from the European Collection of Animal Cell Cultures (ECACC, #88081201). […] The cells are grown as non-adherent cells in RPMI 1640 culture medium, 2 mM glutamine, 20 μM 2-mercaptoethanol. Fresh medium is added to maintain cell density between 2 and 9×10^5 cells/ml. […]
Ninety-six well-microtiter plates are coated by incubating with a 5% gelatin solution from porcine skin, bloom 60 in 50 mM carbonate-bicarbonate buffer, pH9.6 at the concentration of 200 μl/well, for 2 hours at 37° C. The coating solution is carefully removed and the sample to be analyzed was added (100 μl/well) at the appropriate dilution. […] The absorbance at 492 nm versus 620 nm is read on a microplate photometer and the results are then converted in human apoE ng equivalent. […]

apoE plasma levels = assay: ApoE plasma levels in vivo in the rat (ATRA)
plasma apoE = assay: Plasma apoE levels in vivo in rats fed a normal diet; design: species or system rat; settings: orally, 400 mg/kg per day for 5 days
Text: A convenient model for the screening of apoE modulating compounds is the model described in Leininger-Muller & Siest, 1996. This model involves the use of rats fed a normal diet. Selected compounds of formula (I) ae submitted to the in vivo rat test. Following are the results for compound 1, diethyl α-(dimethoxyphosphinyl)-p-chlorobenzyl phosphate: [drawing 3]
Two groups of 4 or 5 OFA rats (Iffa-Credo, France) weighing between 140 g and 160 g were acclimatized for at least one week, allowed UAR food and tap water ad libitum, under a 12/12 hours light/obscurity cycle (7.00 am-7.00 pm) then treated daily between 3.00 pm and 4.00 pm with test compounds ([…]) p.o. in a vehicle volume of 1 ml for 5 days. Compound 1 was given as a suspension in 20% Tween-80 supplemented with 0.5% carboxymethylcellulose. Control group received 1 ml vehicle alone. After a treatment period of 5 days, rats were weighed, sacrificed by decapitation under pentobarbital anesthesia after an overnight fast. Blood was collected on EDTA and plasma was used for analysis. When given orally to rats at the dose of 400 mg/kg per day for 5 days, compound 1 increased plasma apoE by 61±8%.

apoE in sciatic nerve = assay: Sciatic nerve tissue apoE levels in vivo, rat model of sciatic injury (ELISA); settings: rats, orally, 400 mg/kg/day for 37 days; % change from control
Method: A rat model of sciatic injury was established according to Goodrum & Boudin, 1996. Rats with or without nerve injury were treated orally with compound 1 (400 mg/kg for 5 weeks). The amount of apoE was determined in homogenates of the sciatic nerves by ELISA using a goat anti-apolipoprotein E antibody. A dilution to 1/200 of rat plasma was coated on microtiter plates; apoE was recognized by the polyclonal antibody; the conjugate (anti-goat IgG peroxidase) antibody was then added for substrate biochemical recognition. Apolipoprotein E was expressed as % change from mean control value. Cholesterol was measured with a commercially available enzymatic kit (Bioreac, Switzerland). Results were expressed as % change from control group.

SMILES | production of apoE by THP-1 cells (THP-1 cells) | apoE plasma levels observed in vivo in the rat (apoE plasma levels) | increase of plasma apoE (plasma apoE) [%] | increase of apoE in the contralateral nerve (apoE in sciatic nerve) [%] | increase of apoE in the crushed sciatic nerve (apoE in sciatic nerve) [%]
CC1=C(/C=C/C(C)=C/C=C/C(C)=C/C(=O)O)C(C)(C)CCC1 [ATRA, all-trans retinoic acid] | decreased the production of apoE | decreased apoE plasma levels | – | – | –
CCOP(=O)(OCC)OC(c1ccc(Cl)cc1)P(=O)(OC)OC (stereo not drawn) [compound 1, diethyl α-(dimethoxyphosphinyl)-p-chlorobenzyl phosphate] | – | – | 61±8 | 58 | 154
